Consider 24 compounds from ChEMBL document CHEMBL4393736, “Evaluation of α-hydroxycinnamic acids as pyruvate carboxylase inhibitors” (Bioorg Med Chem, 2019).

The nature of experiment [1]: Inhibition of Staphylococcus aureus pyruvate carboxylase expressed in Escherichia coli BL21(DE3) assessed as FVB-OAA adduct formation using pyruvate as substrate by Fast violet B assay.
Experiment [2] in a line: Inhibition of full length Staphylococcus aureus pyruvate carboxylase expressed in Escherichia coli BL21(DE3) assessed as formation of oxaloacetic acid using pyruvate, HCO3-, ATP and NADH as substrate by malate dehydrogenase coupled enzyme assay.
The species entered for experiment [3] is Homo sapiens. The experiment is described as follows: Inhibition of MDH (unknown origin) at 200 uM using oxaloacetate as substrate by spectrophotometric analysis.
For experiment [4], the species on record is Homo sapiens. The experiment is described as follows: Inhibition of MDH (unknown origin) at 1 mM using oxaloacetate as substrate by spectrophotometric analysis.
Experiment [5] addresses Carbonic anhydrase 2 (Homo sapiens) (UniProt P00918). The experiment is described as follows: Increase in human carbonic anhydrase 2 activity at 200 uM treated with enzyme for 10 mins prior to substrate addition using p-nitrophenyl acetate as substrate measured for 20 mins.
Experiment [6] concerns the target 72 kDa type IV collagenase (Homo sapiens) (UniProt P08253). Briefly: Inhibition of human matrix metalloprotease 2 at 50 uM treated with enzyme for 30 mins prior to substrate addition using omniMMP fluorogenic substrate measured for 30 mins by fluorescence based assay.
For experiment [7], the system named is Staphylococcus aureus. The experiment is described as follows: (§1) Competitive inhibition of Staphylococcus aureus pyruvate carboxylase expressed in Escherichia coli BL21(DE3) treated with pyruvate as substrate prior to HCO3-, ATP and NADH addition by Michelis-Menten based double-reciprocal plot analysis.
In experiment [8] the test system is Staphylococcus aureus. The experiment is described as follows: Non-competitive inhibition of Staphylococcus aureus pyruvate carboxylase expressed in Escherichia coli BL21(DE3) treated with ATP as substrate prior to HCO3-, ATP and NADH addition by Michelis-Menten based double-reciprocal plot analysis.
Experiment [9] deals with L-lactate dehydrogenase (Homo sapiens) (UniProt V9HWB9). The experiment is described as follows: Substrate activity at lactate dehydrogenase (unknown origin) at 2 mM in presence of NADH.
A short description of experiment [10]: as §1.
In experiment [11] the target is Carbonic anhydrase 2 (Homo sapiens) (UniProt P00918). Briefly: Inhibition of human carbonic anhydrase 2 at 200 uM treated with enzyme for 10 mins prior to substrate addition using p-nitrophenyl acetate as substrate measured for 20 mins.
A short description of experiment [12]: Mixed-type of inhibition of Staphylococcus aureus pyruvate carboxylase expressed in Escherichia coli BL21(DE3) treated with ATP as substrate prior to HCO3-, ATP and NADH addition by Michelis-Menten based double-reciprocal plot analysis.
In experiment [13] the target is L-lactate dehydrogenase (Homo sapiens) (UniProt V9HWB9). The experiment is described as follows: Inhibition of lactate dehydrogenase (unknown origin) at 2 mM using pyruvate as substrate in presence of NADH.

Activity calls are given as the source filed them. The calls are words filed in the database; no cut-off is given here. A value given as a limit tells only on which side of the number the result lay.

Chain of 72 kDa type IV collagenase (Homo sapiens) (P08253 110-660 limits assumed): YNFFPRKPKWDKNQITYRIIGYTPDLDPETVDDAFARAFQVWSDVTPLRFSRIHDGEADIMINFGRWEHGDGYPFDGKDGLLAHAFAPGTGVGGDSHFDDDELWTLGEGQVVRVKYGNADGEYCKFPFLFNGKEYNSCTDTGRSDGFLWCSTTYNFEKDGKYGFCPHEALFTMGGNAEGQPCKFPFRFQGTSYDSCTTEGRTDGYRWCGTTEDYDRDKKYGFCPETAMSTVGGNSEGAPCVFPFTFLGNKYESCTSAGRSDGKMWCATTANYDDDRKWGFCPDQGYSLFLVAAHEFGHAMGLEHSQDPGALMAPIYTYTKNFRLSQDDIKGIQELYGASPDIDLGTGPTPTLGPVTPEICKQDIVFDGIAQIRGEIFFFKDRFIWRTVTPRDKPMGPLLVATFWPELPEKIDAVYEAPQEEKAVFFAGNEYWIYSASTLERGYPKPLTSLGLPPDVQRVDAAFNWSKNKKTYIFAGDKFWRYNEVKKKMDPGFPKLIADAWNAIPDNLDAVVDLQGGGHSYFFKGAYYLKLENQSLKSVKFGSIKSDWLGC

In the case of `O=C(O)/C(O)=C/c1ccc(F)cc1`, the IC50 was found to be 100 µM in experiment [1] and 30 µM in experiment [2]. Further, the values for the inhibition in the experiment filed under Homo sapiens [3] and in the experiment listed under Homo sapiens [4] were 23% and 78%, respectively.

Turning to `Cc1cccc(/C=C(\O)C(=O)O)c1`, the IC50 in experiment [1] is 360 µM; in [2], 23 µM. The inhibition was 13% in the experiment listed under Homo sapiens [3] and 74% in the experiment listed under Homo sapiens [4].

As to `O=C(O)C(=O)CC1CCCCC1`, the IC50 in experiment [1] is > 1000 µM.

As for `O=C(O)/C=C/c1ccc(/C=C(\O)C(=O)O)cc1`, the half-inhibitory concentration (IC50) in experiment [1] is 58.6 µM. Also, in experiment [5], the result was Active. The inhibition result in [6] was “Active”.

For the compound `O=C(O)C(=O)O`, the inhibition result in the experiment on Staphylococcus aureus [7] and with Staphylococcus aureus [8] was “Active” throughout.

Turning to `O=C(O)C(=O)Cc1ccccc1[N+](=O)[O-]`, the 50% inhibitory concentration (IC50) in [1] and in experiment [2] was > 2000 µM in each case.

Take `Cc1ccc(/C=C(\O)C(=O)O)cc1C`: the concentration for half-maximal inhibition (IC50) in experiment [1] was found to be 98 µM; in [2], 38 µM. Also, the inhibition in the experiment listed under Homo sapiens [3] is 3%.

Regarding `Cc1ccc(/C=C(\O)C(=O)O)cc1`, the values for the concentration for half-maximal inhibition (IC50) in [1] and in experiment [2] were 210 µM and 140 µM, respectively. For the same compound, the inhibition entry in the experiment with Staphylococcus aureus [7] and in the experiment with Staphylococcus aureus [8] was “Active” throughout. Further, the inhibition in the experiment listed under Homo sapiens [3] was -3%; in the experiment listed under Homo sapiens [4], 10%.

As for `O=C(O)/C=C/c1cccc(/C=C(\O)C(=O)O)c1`, the half-inhibitory concentration (IC50) in experiment [1] worked out at 118 µM.

Regarding `O=C(O)/C(O)=C/c1ccc(Cl)cc1`, the IC50 in experiment [1] was 280 µM; in experiment [2], 220 µM. Also, the inhibition in the experiment filed under Homo sapiens [3] was 2%; in the experiment filed under Homo sapiens [4], 12%.

Turning to `COc1ccc(/C=C(\O)C(=O)O)cc1`, the IC50 in experiment [1] is 170 µM; in experiment [2], 56 µM.

`O=C(O)C(=O)CCc1ccccc1`: the 50% inhibitory concentration (IC50) in experiment [1] was > 2000 µM.

Regarding `O=C(O)/C(O)=C/c1ccc([N+](=O)[O-])cc1`, the 50% inhibitory concentration (IC50) in experiment [1] and in experiment [2] was > 1000 µM each time.

With `O=C(O)/C(O)=C/c1ccc(Br)cc1`, the half-maximal inhibitory concentration (IC50) was found to be 200 µM in experiment [1] and 81 µM in [2]. Moreover, the values for the inhibition in the experiment filed under Homo sapiens [3] and in the experiment filed under Homo sapiens [4] were 0% and 9%, respectively.

As to `O=C(O)/C(O)=C/c1ccc(O)cc1`, the figures for the 50% inhibitory concentration (IC50) in [1] and in experiment [2] were 67 µM and 22 µM, respectively. In addition, the outcome in experiment [9] was Active. In the experiment listed under Homo sapiens [4], the inhibition was determined as 9%.

For the compound `C=CCCC(=O)C(=O)O`, in [1], the IC50 is > 2000 µM.

For `O=C(O)C(O)Cc1ccccc1` (centres undefined), the IC50 in experiment [1] is > 3000 µM.

Regarding `O=C(O)/C(O)=C/c1ccccc1`, the IC50 was 240 µM in experiment [1] and 130 µM in [2]. Moreover, the values for the inhibition in the experiment listed under Homo sapiens [3] and in the experiment listed under Homo sapiens [4] were 0% and 78%, respectively.

In the case of `O=C(O)C(=O)c1ccccc1` [BENZOYL FORMIC ACID], the IC50 in experiment [1] was > 3000 µM.

Consider `O=C(O)/C(O)=C/c1ccc(/C=C(\O)C(=O)O)cc1`, for which the IC50 stood at 3 µM in experiment [1] and 11 µM in [2]. The result in experiment [5] was Active. The inhibition entry in experiment [6] is “Active”.

With `O=C(O)/C(O)=C/c1ccc(-c2ccsc2)cc1`, in [1], the IC50 is 48 µM. Further, the inhibition entry in experiment [6] was “Active”.

As for `O=C(O)/C(O)=C/c1ccc(C(F)(F)F)cc1`, the values for the 50% inhibitory concentration (IC50) in experiment [1] and in experiment [2] were 130 µM and 96 µM, respectively.

Regarding `O=C(O)/C(O)=C/c1ccc2ccccc2n1`, the half-inhibitory concentration (IC50) is 4.3 µM in [1] and 3.2 µM in [2]. Moreover, the values for the inhibition constant Ki in experiment [10] and in experiment [12] were 0.74 µM and 5.2 to 7.1 µM, respectively. Further, the inhibition entry in experiment [11], in [6] and in [13] was “inactive” throughout. Besides, in experiment [9], the result was inactive. Also, the inhibition in the experiment filed under Homo sapiens [4] turned out to be 4%.

`O=C(O)C(=O)Cc1ccccc1Br`: the IC50 in [1] and in experiment [2] was > 1000 µM in each case.
